Data taken from ChEMBL document CHEMBL1201862, “PubChem BioAssay data set” (2004).
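Values below derive from 48-hour exposures of cells grown in 96-well plates, with endpoints linearly interpolated between the two concentrations bracketing the appropriate inhibition level. GI50: concentration for 50% inhibition of growth.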 Active and inactive are the calls of the source. Cut-off read from the data, not from the text of the source: active = GI50 up to about 1.1 µM and inactive = higher. *1 amine or outer side, *2 acyl side, *3 side chain or, on linkers, in order; H or OH if unused. Where a SMILES comes first, the peptide text is derived from it. Bridges are numbered along the chain shown (N, C = ends). [ ]: non-standard residue; d: D form. The star is where a group is joined. ξ: configuration not given here. ξOrn(4,5-diOH) = O=C(C(CC(O)C(O)N[*:3])N[*:1])[*:2]; ξhTyr(βξ-OH,γξ-OH) = NC(C(=O)O)C(O)C(O)c1ccc(O)cc1; ξPro(3ξ-OH,4ξ-Me) = CC1CNC(C(=O)O)C1O; X55 = CCCCC/C=C/C/C=C\CCCCCCCC(=O)*; Hyp = O=C(O)[CH]1C[CH](O)CN1

What was measured:
Test in all cases: growth of human tumour cells (NCI), 48 h
[1] = tested on: T47D
[2] = tested on: CAKI-1
[3] = tested on: DU-145
[4] = tested on: LOX IMVI
[5] = tested on: OVCAR-3
[6] = tested on: SK-MEL-28
[7] = tested on: MCF7
[8] = tested on: SK-MEL-5
[9] = tested on: SN12C
[10] = tested on: MDA-MB-231
[11] = tested on: A549
[12] = tested on: SNB-19
[13] = tested on: Malme-3M
[14] = tested on: HCT-116
[15] = tested on: SF-268
[16] = tested on: K562
[17] = tested on: COLO 205
[18] = tested on: SK-OV-3
[19] = tested on: SF-539

Measured: GI50

O=[As](O)(O)c1ccc2nc3cc([As](=O)(O)O)ccc3nc2c1
inactive: [1] > 100 µM | [2] > 100 µM | [3] > 100 µM | [4] > 100 µM | [5] > 100 µM | [6] > 100 µM | [7] > 100 µM | [8] > 100 µM | [9] > 100 µM | [10] > 100 µM | [11] > 100 µM | [12] > 100 µM | [13] > 100 µM | [14] > 100 µM | [15] > 100 µM | [16] > 100 µM

CC1=NNC(=O)C1C(CC(=O)c1c[nH]c2ccccc12)C(=O)O (stereo unspecified)
inactive: [1] 76 µM | [2] > 100 µM | [17] 64.7 µM | [3] > 100 µM | [4] 97.3 µM | [5] > 100 µM | [18] > 100 µM | [6] > 100 µM | [8] > 100 µM | [9] > 100 µM | [10] > 100 µM | [11] > 100 µM | [12] > 100 µM | [13] > 100 µM | [14] > 100 µM | [15] > 100 µM | [16] 36.1 µM | [19] > 100 µM

CO/C(=N\N=C\c1ccc(C(F)(F)F)cc1)c1ccncc1
inactive: [1] > 10 µM | [2] > 10 µM | [17] > 10 µM | [3] > 10 µM | [4] > 10 µM | [5] > 10 µM | [7] > 10 µM | [9] > 10 µM | [10] > 10 µM | [11] > 10 µM | [12] > 10 µM | [13] > 10 µM | [14] > 10 µM | [15] > 10 µM | [16] > 10 µM

O=C(NC1=NC2C=CC([N+](=O)[O-])=CC2S1)C(=O)Nn1c(S)nc2ccccc2c1=O (stereo unspecified)
inactive: [1] 80.5 µM | [2] 40.4 µM | [4] 67.3 µM | [5] > 100 µM | [18] 63 µM | [6] > 100 µM | [7] 97.7 µM | [8] 88.1 µM | [9] > 100 µM | [10] 63.8 µM | [11] > 100 µM | [12] 24.3 µM | [13] 80 µM | [14] 79.3 µM | [15] 99.3 µM | [16] 64.1 µM | [19] > 100 µM

NC(=O)C1Cc2cc3c(cc21)OCO3 (stereo unspecified)
inactive: [2] > 100 µM | [17] > 100 µM | [3] > 100 µM | [4] > 100 µM | [5] > 100 µM | [18] > 100 µM | [7] > 100 µM | [8] > 100 µM | [10] > 100 µM | [11] > 100 µM | [12] > 100 µM | [13] > 100 µM | [14] > 100 µM | [15] > 100 µM | [19] > 100 µM

CCC(C)CNC1=C(NC(C)=O)C(=O)c2ccccc2C1=O (stereo unspecified)
inactive: [17] 78.9 µM | [4] > 100 µM | [5] 55.7 µM | [18] > 100 µM | [6] > 100 µM | [8] 31.6 µM | [9] > 100 µM | [11] > 100 µM | [12] > 100 µM | [13] 35.5 µM | [14] > 100 µM | [15] > 100 µM | [16] > 100 µM | [19] > 100 µM

Cc1nnc([C@@]2(C)CC[C@H]3[C@@H](CC=C4C[C@@H](O)CC[C@@]43C)[C@@H]2CC#N)o1
inactive: [2] > 100 µM | [17] > 100 µM | [4] > 100 µM | [5] > 100 µM | [18] > 100 µM | [7] > 100 µM | [8] > 100 µM | [9] > 100 µM | [10] > 100 µM | [11] > 100 µM | [12] > 100 µM | [13] > 100 µM | [14] > 100 µM | [15] > 100 µM | [16] > 100 µM | [19] > 100 µM

O=c1cc(NNc2cccc(F)c2)[nH]c(=S)[nH]1
inactive: [17] 77.1 µM | [3] > 100 µM | [4] 49.3 µM | [5] 26.9 µM | [6] > 100 µM | [7] 61.5 µM | [8] > 100 µM | [9] > 100 µM | [10] > 100 µM | [11] > 100 µM | [12] > 100 µM | [13] > 100 µM | [14] > 100 µM | [15] 1.97 µM | [16] 61.4 µM | [19] > 100 µM

CCCCCC[C@H]1CC(=O)C2CCCC[C@@]23CC[C@H](CCl)N13.CCCCCC[C@H]1CC(=O)C2CCCC[C@@]23C[C@H](Cl)CN13 (stereo partly specified)
inactive: [2] 58.9 µM | [17] 10 µM | [3] 61 µM | [5] 25.1 µM | [18] > 100 µM | [6] 38.1 µM | [7] 40.1 µM | [8] 17.2 µM | [9] 82 µM | [10] 84.5 µM | [11] 37 µM | [12] 37.9 µM | [13] 55.3 µM | [14] 51.9 µM | [15] 65.2 µM | [16] 28.6 µM | [19] 69.5 µM

COc1ccc(NCn2nc(CCCCCCCCc3nn(CNc4ccc(OC)cc4)c(=S)o3)oc2=S)cc1
inactive: [2] > 100 µM | [17] > 100 µM | [3] > 100 µM | [18] > 100 µM | [6] > 100 µM | [7] > 100 µM | [8] > 100 µM | [9] > 100 µM | [10] > 100 µM | [11] > 100 µM | [12] > 100 µM | [13] > 100 µM | [14] 21 µM | [15] > 100 µM | [16] > 100 µM

Cn1c(N=[N+]=[N-])cc(=O)n(C)c1=O
inactive: [1] > 100 µM | [2] > 100 µM | [17] > 100 µM | [4] > 100 µM | [5] > 100 µM | [18] > 100 µM | [8] > 100 µM | [9] > 100 µM | [10] > 100 µM | [11] > 100 µM | [12] > 100 µM | [13] > 100 µM | [14] > 100 µM | [15] > 100 µM | [16] > 100 µM | [19] > 100 µM

CCCCC/C=C/C/C=C\CCCCCCCC(=O)NC1CC(O)C(O)NC(=O)C2C(O)C(C)CN2C(=O)C(C(C)O)NC(=O)C(C(O)C(O)c2ccc(O)cc2)NC(=O)C2CC(O)CN2C(=O)C(C(C)O)NC1=O (stereo not drawn) (X55-[ξOrn(4,5-diOH)]T[Hyp][ξhTyr(βξ-OH,γξ-OH)]T[ξPro(3ξ-OH,4ξ-Me)]; lactam 1-C; configuration not given here)
inactive: [1] > 100 µM | [2] > 100 µM | [17] > 100 µM | [3] > 100 µM | [4] > 100 µM | [5] > 100 µM | [6] > 100 µM | [8] > 100 µM | [9] > 100 µM | [10] > 100 µM | [11] > 100 µM | [12] > 100 µM | [14] > 100 µM | [15] > 100 µM | [16] > 100 µM | [19] > 100 µM
